Assay results published in publication PMC7613998, “Development of selective inhibitors of phosphatidylinositol 3-kinase C2α” (Nature Chemical Biology, 2022).
Read-outs that look alike come from different tables or passages of the source.

Legend:
Assay in all cases: biochemical
MAP3K8 (COT) = MAP3K8 (COT) (Homo sapiens, UniProt P41279); set-up: SelectScreen Z'-LYTE purified kinase panel, per cent inhibition, mean of two points; conditions: (μM)=100
JAK3 = molecular target: T1, JAK3 (Homo sapiens, UniProt P52333); set-up: SelectScreen Z'-LYTE purified kinase panel, per cent inhibition, mean of two points; conditions: (μM)=Km app
T1 sequence (P52333 1-1124): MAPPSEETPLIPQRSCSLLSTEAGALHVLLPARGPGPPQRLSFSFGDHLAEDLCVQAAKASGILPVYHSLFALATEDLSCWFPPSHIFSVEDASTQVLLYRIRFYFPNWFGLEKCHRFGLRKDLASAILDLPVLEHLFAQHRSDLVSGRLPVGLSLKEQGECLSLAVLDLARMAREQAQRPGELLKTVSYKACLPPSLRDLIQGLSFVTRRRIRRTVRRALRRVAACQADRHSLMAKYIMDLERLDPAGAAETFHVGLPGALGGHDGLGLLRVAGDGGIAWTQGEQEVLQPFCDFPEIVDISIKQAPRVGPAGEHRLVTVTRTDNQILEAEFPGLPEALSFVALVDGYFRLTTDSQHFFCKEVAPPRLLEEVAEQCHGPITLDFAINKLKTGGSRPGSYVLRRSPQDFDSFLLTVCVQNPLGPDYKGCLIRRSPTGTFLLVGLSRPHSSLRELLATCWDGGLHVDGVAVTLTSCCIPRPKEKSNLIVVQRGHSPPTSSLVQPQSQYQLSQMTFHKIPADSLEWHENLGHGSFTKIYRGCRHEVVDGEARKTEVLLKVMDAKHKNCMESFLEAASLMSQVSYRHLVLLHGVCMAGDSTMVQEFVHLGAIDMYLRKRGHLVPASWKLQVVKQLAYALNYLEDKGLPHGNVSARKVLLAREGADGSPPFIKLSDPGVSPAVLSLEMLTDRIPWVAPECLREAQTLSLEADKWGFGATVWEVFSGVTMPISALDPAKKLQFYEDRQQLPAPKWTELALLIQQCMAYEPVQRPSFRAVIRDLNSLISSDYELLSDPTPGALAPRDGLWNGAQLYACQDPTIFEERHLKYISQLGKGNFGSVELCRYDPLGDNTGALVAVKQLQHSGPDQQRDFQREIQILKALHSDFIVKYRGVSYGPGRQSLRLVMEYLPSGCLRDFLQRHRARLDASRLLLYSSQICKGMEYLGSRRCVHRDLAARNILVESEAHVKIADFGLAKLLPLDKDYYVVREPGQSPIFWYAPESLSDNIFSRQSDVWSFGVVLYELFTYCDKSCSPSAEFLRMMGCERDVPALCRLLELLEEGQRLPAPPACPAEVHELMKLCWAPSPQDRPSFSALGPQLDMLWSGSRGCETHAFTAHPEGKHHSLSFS

EGFR (ErbB1) L858R = EGFR (ErbB1) L858R (Homo sapiens, UniProt P00533, L858R); set-up: SelectScreen Z'-LYTE purified kinase panel, per cent inhibition, mean of two points; conditions: (μM)=Km app
PRKCA (PKC alpha) = PRKCA (PKC alpha) (Homo sapiens, UniProt P17252); set-up: SelectScreen Z'-LYTE purified kinase panel, per cent inhibition, mean of two points; conditions: (μM)=Km app
PIK3CG (p110 gamma) = PIK3CG (p110 gamma) (Homo sapiens, UniProt P48736); set-up: SelectScreen Adapta purified lipid kinase panel, 1 uM compound, 10 uM ATP, per cent inhibition; conditions: ATP=10; Technology=Adapta; 10 uM ATP
Chain of PIK3CG (p110 gamma) (P48736 whole entry): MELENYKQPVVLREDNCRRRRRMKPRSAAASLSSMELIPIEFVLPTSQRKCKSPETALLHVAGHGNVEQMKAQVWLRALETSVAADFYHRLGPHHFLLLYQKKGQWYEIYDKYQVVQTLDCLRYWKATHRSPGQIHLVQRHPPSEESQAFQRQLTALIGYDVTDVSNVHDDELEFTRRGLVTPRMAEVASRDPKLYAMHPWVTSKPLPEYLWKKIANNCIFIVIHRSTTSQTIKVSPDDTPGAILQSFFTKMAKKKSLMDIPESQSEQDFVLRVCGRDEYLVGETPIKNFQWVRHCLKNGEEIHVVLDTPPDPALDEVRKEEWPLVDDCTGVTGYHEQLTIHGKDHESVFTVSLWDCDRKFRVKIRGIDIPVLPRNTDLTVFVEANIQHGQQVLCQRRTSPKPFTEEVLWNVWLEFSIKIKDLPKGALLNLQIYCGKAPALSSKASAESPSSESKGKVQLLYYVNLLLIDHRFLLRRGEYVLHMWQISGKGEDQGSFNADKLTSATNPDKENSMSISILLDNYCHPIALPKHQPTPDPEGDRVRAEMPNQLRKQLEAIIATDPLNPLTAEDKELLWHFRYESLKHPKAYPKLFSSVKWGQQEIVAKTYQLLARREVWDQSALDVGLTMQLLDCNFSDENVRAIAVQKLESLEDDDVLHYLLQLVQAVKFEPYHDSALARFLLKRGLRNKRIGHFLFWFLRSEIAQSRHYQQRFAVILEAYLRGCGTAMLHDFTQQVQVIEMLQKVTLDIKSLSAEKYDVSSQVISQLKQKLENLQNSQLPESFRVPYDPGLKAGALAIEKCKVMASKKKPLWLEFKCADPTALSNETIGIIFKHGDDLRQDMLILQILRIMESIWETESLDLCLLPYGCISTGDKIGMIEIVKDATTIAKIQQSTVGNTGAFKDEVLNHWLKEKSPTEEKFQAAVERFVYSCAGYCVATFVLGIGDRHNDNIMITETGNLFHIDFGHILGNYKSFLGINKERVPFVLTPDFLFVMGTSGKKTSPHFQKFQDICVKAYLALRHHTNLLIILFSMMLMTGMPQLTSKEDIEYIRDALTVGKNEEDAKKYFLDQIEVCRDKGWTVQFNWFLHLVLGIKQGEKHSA
Description: (§1) As PI3KC2α is related to other PI3Ks and to PI3K-like protein kinases such as mTOR, the selectivity of PITCOINs was determined in a panel of biochemical assays. […] Finally, the high specificity of PITCOINs for PI3KC2α was verified by Kinobead profiling experiments. In this approach, the ability of PITCOINs to compete the affinity capture of cellular kinases on immobilized nonselective kinase inhibitors (Kinobeads) is analyzed by mass spectrometry (MS)[31]. […] Four nonkinase weak off-targets were globally found for the three inhibitors with only FECH[32] common to the three PITCOINs (Supplementary Dataset).  Extended Data Fig. 2 Lipid kinase inhibitor profile of PITCOIN1-3. (a–c) Selectivity profiling of PITCOIN1-3 (1 µM) with purified lipid kinases in the presence of 10 µM ATP. […] Data are presented as mean ± SD from two independent experiments. (d, e) IC50 measurements of PITCOIN1-3 against purified recombinant class I PI3K p110α/p85α (d) or purified class III PI3K VPS34 complex II (e). 10 µM ATP and 20 µM PIP3 (for p110α/p85α) or 200 µM PI (for VPS34 complex II) were used as substrates. […] Data are presented as mean ± SD from two independent experiments. Source data

PIK3C3 (hVPS34) = PIK3C3 (hVPS34) (Homo sapiens, UniProt Q8NEB9); set-up: SelectScreen Adapta purified lipid kinase panel, 1 uM compound, 10 uM ATP, per cent inhibition; conditions: ATP=10; Technology=Adapta; 10 uM ATP
Description: as §1

PI4K2A (PI4K2 alpha) = PI4K2A (PI4K2 alpha) (Homo sapiens, UniProt Q9BTU6); set-up: SelectScreen Adapta purified lipid kinase panel, 1 uM compound, 10 uM ATP, per cent inhibition; conditions: ATP=10; Technology=Adapta; 10 uM ATP
Description: as §1

[1] = molecular target: PIK3CB/PIK3R1 (p110 beta/p85 alpha) (Homo sapiens, UniProt P42338); set-up: SelectScreen Adapta purified lipid kinase panel, 1 uM compound, 10 uM ATP, per cent inhibition; conditions: ATP=10; Technology=Adapta; 10 uM ATP
Chain of PIK3CB/PIK3R1 (p110 beta/p85 alpha) (P42338 whole entry): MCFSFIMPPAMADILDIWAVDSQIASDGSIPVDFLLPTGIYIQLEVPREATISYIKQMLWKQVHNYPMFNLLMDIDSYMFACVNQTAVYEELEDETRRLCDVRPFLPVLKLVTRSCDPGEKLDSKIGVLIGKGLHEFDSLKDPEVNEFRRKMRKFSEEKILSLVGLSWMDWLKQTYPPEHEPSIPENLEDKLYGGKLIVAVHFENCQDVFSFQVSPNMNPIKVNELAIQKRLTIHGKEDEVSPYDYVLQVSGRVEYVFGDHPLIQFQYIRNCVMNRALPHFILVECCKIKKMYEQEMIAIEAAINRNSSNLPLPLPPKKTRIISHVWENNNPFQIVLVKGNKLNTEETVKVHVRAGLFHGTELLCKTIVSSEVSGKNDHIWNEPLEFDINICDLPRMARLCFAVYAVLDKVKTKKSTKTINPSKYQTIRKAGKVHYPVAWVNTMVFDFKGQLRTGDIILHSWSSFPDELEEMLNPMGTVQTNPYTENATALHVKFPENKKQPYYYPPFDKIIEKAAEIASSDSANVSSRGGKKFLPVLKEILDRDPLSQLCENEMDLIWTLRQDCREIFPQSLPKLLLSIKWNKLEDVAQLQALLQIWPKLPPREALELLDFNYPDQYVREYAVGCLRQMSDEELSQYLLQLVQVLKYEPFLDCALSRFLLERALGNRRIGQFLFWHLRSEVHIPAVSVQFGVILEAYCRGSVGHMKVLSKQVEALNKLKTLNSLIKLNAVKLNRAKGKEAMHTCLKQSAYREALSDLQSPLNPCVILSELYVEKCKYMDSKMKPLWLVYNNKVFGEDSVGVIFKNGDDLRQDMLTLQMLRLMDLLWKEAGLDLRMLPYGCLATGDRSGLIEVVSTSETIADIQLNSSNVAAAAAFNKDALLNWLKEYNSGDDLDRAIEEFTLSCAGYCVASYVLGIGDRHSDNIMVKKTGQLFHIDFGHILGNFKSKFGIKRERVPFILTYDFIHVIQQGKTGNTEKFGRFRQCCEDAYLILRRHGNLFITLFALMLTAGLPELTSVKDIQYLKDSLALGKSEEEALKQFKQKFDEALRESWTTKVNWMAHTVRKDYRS
Chain of PIK3CB/PIK3R1 (p110 beta/p85 alpha) (P27986 whole entry partner): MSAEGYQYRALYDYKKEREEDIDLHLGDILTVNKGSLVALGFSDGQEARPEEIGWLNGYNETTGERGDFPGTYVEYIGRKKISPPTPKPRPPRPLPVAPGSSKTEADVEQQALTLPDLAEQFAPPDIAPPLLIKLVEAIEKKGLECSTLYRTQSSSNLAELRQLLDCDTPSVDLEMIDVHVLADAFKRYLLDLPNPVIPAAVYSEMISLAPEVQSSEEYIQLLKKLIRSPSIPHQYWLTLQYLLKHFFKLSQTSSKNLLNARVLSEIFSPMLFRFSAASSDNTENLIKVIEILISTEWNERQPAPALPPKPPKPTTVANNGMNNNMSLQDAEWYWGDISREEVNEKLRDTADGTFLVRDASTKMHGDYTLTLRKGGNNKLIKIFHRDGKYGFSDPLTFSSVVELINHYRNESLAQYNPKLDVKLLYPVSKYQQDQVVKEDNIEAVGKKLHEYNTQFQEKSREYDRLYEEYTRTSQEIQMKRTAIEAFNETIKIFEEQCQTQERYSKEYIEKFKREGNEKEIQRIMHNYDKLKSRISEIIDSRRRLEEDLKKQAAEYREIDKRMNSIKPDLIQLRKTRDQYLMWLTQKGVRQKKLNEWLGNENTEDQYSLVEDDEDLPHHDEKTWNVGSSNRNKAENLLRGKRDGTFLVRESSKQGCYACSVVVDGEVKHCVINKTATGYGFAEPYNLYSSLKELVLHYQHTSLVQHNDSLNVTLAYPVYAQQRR
Description: as §1

PI4KB (PI4K beta) = PI4KB (PI4K beta) (Homo sapiens, UniProt Q9UBF8); set-up: SelectScreen Adapta purified lipid kinase panel, 1 uM compound, 10 uM ATP, per cent inhibition; conditions: ATP=10; Technology=Adapta; 10 uM ATP
Chain of PI4KB (PI4K beta) (Q9UBF8 whole entry): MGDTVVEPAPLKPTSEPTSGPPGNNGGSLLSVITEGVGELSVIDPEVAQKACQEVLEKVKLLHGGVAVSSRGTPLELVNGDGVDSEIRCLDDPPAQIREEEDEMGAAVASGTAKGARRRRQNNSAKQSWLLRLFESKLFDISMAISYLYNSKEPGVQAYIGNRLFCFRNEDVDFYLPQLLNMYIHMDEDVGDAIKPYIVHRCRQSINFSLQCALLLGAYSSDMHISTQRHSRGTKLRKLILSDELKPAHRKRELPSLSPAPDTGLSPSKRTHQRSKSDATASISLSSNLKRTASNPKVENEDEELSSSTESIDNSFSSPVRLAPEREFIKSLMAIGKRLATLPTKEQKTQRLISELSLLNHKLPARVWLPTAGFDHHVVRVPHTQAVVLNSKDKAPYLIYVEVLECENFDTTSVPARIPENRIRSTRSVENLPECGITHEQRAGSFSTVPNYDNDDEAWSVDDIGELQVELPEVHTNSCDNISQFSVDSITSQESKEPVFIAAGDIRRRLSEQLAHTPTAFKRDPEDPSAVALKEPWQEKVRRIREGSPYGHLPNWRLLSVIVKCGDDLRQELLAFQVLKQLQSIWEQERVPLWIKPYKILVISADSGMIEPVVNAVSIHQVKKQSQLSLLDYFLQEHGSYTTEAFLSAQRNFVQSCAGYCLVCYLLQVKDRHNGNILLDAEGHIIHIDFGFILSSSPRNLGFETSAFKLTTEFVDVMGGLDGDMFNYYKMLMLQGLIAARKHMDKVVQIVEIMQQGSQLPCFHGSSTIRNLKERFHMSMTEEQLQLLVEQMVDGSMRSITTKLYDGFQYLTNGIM
Description: as §1

[2] = molecular target: PIK3CA/PIK3R3 (p110 alpha/p55 gamma) (Homo sapiens, UniProt P42336); set-up: SelectScreen Adapta purified lipid kinase panel, 1 uM compound, 10 uM ATP, per cent inhibition; conditions: ATP=10; Technology=Adapta; 10 uM ATP
Description: as §1

PI3KC2γ = molecular target: T2, PI3KC2γ (Homo sapiens, UniProt O75747); set-up: ADP-Glo lipid kinase assay with liver PI substrate, luminescence
T2 construct: gene PIK3C2G

Chain of MAP3K8 (COT) (P41279 whole entry): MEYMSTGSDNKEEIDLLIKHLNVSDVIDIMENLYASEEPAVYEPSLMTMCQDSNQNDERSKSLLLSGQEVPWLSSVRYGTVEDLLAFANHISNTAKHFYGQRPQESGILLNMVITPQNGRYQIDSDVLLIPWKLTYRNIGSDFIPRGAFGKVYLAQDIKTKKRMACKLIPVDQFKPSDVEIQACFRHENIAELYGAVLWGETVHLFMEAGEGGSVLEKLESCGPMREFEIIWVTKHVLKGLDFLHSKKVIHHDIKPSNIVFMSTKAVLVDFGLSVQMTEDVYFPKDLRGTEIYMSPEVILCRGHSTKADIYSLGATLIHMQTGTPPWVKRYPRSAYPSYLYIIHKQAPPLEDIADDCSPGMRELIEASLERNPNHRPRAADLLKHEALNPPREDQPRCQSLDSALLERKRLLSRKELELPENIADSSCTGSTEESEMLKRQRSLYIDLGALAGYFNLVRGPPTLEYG

Row | inhibition at 1 µM (MAP3K8 (COT)) [%] | inhibition at 3 µM (MAP3K8 (COT)) [%] | inhibition at 10 µM (MAP3K8 (COT)) [%] | inhibition at 1 µM (JAK3) [%] | inhibition at 3 µM (JAK3) [%] | inhibition at 10 µM (JAK3) [%] | inhibition at 1 µM (EGFR (ErbB1) L858R) [%] | inhibition at 3 µM (EGFR (ErbB1) L858R) [%] | inhibition at 10 µM (EGFR (ErbB1) L858R) [%] | inhibition at 1 µM (PRKCA (PKC alpha)) [%] | inhibition at 3 µM (PRKCA (PKC alpha)) [%] | inhibition at 10 µM (PRKCA (PKC alpha)) [%] | inhibition at 1 µM (PIK3CG (p110 gamma)) [%] | inhibition at 1 µM (PIK3C3 (hVPS34)) [%] | inhibition at 1 µM (PI4K2A (PI4K2 alpha)) [%] | inhibition at 1 µM [1] [%] | inhibition at 1 µM (PI4KB (PI4K beta)) [%] | inhibition at 1 µM [2] [%] | IC50 (PI3KC2γ; read-out: PITCOIN3 (IC50)) [µM] | IC50 (PI3KC2γ; read-out: PITCOIN2 (IC50)) [µM] | Compound
1 | 1.68 | -2.27 | 4.32 | -0.818 | -2.14 | 0.865 | -0.259 | 2.85 | -1.14 | 6.59 | 10 | 0.714 | 20 | -14 | 8 | 10 | 4 | -6 |  |  | O=C(CSc1nc2nccnc2c(=O)n1CCc1ccccc1)Nc1nccs1 [compound 1, PITCOIN1]
2 | 2.37 | 11.4 | 4.89 | 1.86 | -1.56 | -1.58 | 1.72 | 5.21 | -1.6 | 0.445 | 18.8 | 15.2 | 9 | 2 | 1 | 12 | 13 | 5 | > 10 |  | CS(=O)(=O)Nc1cccc(-c2csc(NC(=O)CSc3nc4nccnc4c(=O)n3CCc3ccccc3)n2)c1 [compound 3, PITCOIN3]
3 |  |  |  |  |  |  |  |  |  |  |  |  | 16 | 7 | 4 | 13 | 3 | -10 |  | > 10 | O=C(CSc1nc2nccnc2c(=O)n1CCc1ccccc1)Nc1nc(-c2cccc(O)c2)cs1 [compound 2, PITCOIN2]
